Assay results reported in ChEMBL document CHEMBL3507680, “University of Dundee, Gates Library screen for HepG2 cell viability”.
Values joined by “and” are separate entries in the source; they are usually repeats but may differ in a detail not shown here. Equal entries are not always repeated.

How the values were obtained:
[1] = Human HepG2 cell viability assay in 384 well format; type: toxicity, cell-based; parameters: dose 125 nL, time 70.5 hour; cytotoxicity at 70.5 h: concentration not given beside the values; settings: HepG2 cells, read-out: Inhibition
[2] = Human HepG2 cell viability dose-response assay; type: toxicity, cell-based

SMILES | cytotoxicity at 70.5 h [1] [%] | BOTTOM [2] | HILLSLOPE [2] | TOP [2] | pXC50 [2]
COc1ccc(C2CCCN2c2nnc(C)s2)c(OC)c1 (centres undefined) | 64.4 | 0 | 0 | 0 | < 4.53
Cc1cc(C(=O)NCC(O)c2c(Cl)cccc2Cl)nn1C (centres undefined) | 71.4 | 0 | 0 | 0 | < 4.53
COCCn1c2c(ccc1=O)CC(NCc1cnn(C)c1)CC2 (centres undefined) | 101 | 0 | 0 | 0 | < 4.53
CNc1cc(C)nc(NCc2cc(C)cc3c(C)c(C)[nH]c23)n1 | 67.2 | -6.522 and -8.24 | 2.624 and 2.705 | 104.6 and 104.5 | 5.463 and 5.453
CCc1[nH]c2c(CNc3nc(C)cc(NC)n3)cc(C)cc2c1C | 99.9 | -3.977 and -5.003 | 3.393 and 3.303 | 104.5 and 105 | 5.219 and 5.191
COc1ccc(OCCN2CCC(N3CCNC3=O)CC2)cc1 | 80.5 | – | 1.006 and 1.131 | 99.89 and 100 | 4.882 and 4.993
Cc1cnc(C(=O)N2CCCC(n3ccnc3C)C2)cn1 (centres undefined) | 61.9 | 0 | 0 | 0 | < 4.53
COCCN1CCN(Cc2cccc(C(N)=O)c2)CC1C (centres undefined) | 71.2 | 0 | 0 | 0 | < 4.53
CC(O)CN1CCC(CNCc2c[nH]nc2C(C)(C)C)CC1 (centres undefined) | 70.3 | 0 | 0 | 0 | < 4.53
Cc1cc(NC(=O)CN2CCn3c(nnc3C(C)C)C2)no1 | 67.5 | 0 | 0 | 0 | < 4.53
